The supplement of paper PMC10307832

Tests used:
Experiment in all cases: relative viability (nuclei count vs DMSO), 5 days (fraction); higher = more cells survive
[1] = compound: CC1=CC=C(C=C1)C(=O)CN2C3=C(CCCC3)SC2=N [Pifithrin_alpha] + CS(=O)(=O)N1CCN(Cc2cc3nc(-c4cccc5[nH]ncc45)nc(N4CCOCC4)c3s2)CC1 [Pictilisib] (partner 1 µM)
Summary of the method: (§1)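 A single step with final 0.05% Triton X-100, 1% formaldehyde and 1 ug/ml Hoechst fixed the cells and stained nuclei 5 days after treatment. Lung cancer cell lines in 1536-well plates had been treated by pin tool the day after seeding with one drug alone or a fixed anchor-drug dose plus five library-drug doses (not always all listed) in √10 steps, and nuclei were counted on 4× images. Relative viability is the ratio of nuclei in treated wells to nuclei in vehicle wells, taken as the median of duplicate plates.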

Bemcentinib + Trametinib = compound: Nc1nc(Nc2ccc3c(c2)CC[C@@H](N2CCCC2)CC3)nn1-c1cc2c(nn1)-c1ccccc1CCC2 [Bemcentinib] + CC(=O)Nc1cccc(-n2c(=O)n(C3CC3)c(=O)c3c(Nc4ccc(I)cc4F)n(C)c(=O)c(C)c32)c1 [Trametinib] (partner 0.02 µM)
Summary of the method: as §1

[2] = compound: Nc1nc(Nc2ccc3c(c2)CC[C@@H](N2CCCC2)CC3)nn1-c1cc2c(nn1)-c1ccccc1CCC2 [Bemcentinib] + CC(=O)c1c(C)c2cnc(Nc3ccc(N4CCNCC4)cn3)nc2n(C2CCCC2)c1=O [Palbociclib] (partner 0.5 µM)
Summary of the method: as §1

Bemcentinib + AZD7762 = compound: Nc1nc(Nc2ccc3c(c2)CC[C@@H](N2CCCC2)CC3)nn1-c1cc2c(nn1)-c1ccccc1CCC2 [Bemcentinib] + NC(=O)Nc1cc(-c2cccc(F)c2)sc1C(=O)N[C@H]1CCCNC1 [AZD7762] (partner 0.2 µM)
Summary of the method: as §1

| Cell Line | relative viability ([1]; first compound 1 µM) | relative viability ([1]; first compound 3.162 µM) | relative viability ([1]; first compound 10 µM) | relative viability ([1]; first compound 31.62 µM) | relative viability ([1]; first compound 100 µM) | relative viability (Bemcentinib + Trametinib; first compound 0.04 µM) | relative viability (Bemcentinib + Trametinib; first compound 0.1265 µM) | relative viability (Bemcentinib + Trametinib; first compound 0.4 µM) | relative viability (Bemcentinib + Trametinib; first compound 1.265 µM) | relative viability (Bemcentinib + Trametinib; first compound 4 µM) | relative viability ([2]; first compound 0.04 µM) | relative viability ([2]; first compound 0.1265 µM) | relative viability ([2]; first compound 0.4 µM) | relative viability ([2]; first compound 1.265 µM) | relative viability ([2]; first compound 4 µM) | relative viability (Bemcentinib + AZD7762; first compound 0.04 µM) | relative viability (Bemcentinib + AZD7762; first compound 0.1265 µM) | relative viability (Bemcentinib + AZD7762; first compound 0.4 µM) | relative viability (Bemcentinib + AZD7762; first compound 1.265 µM) | relative viability (Bemcentinib + AZD7762; first compound 4 µM) |
| --- | --- | --- | --- | --- | --- | --- | --- | --- | --- | --- | --- | --- | --- | --- | --- | --- | --- | --- | --- | --- |
| HCC-366 | 0.105 | 0.106 | 0.136 | 0.136 | 0.112 | 0.368 | 0.428 | 0.407 | 0.409 | 0.419 | 0.398 | 0.508 | 0.528 | 0.443 | 0.519 | 0.253 | 0.382 | 0.248 | 0.163 | 0.208 |
| HCC-827 | 1.05 | 0.982 | 0.907 | 0.791 | 1.02 | 0.545 | 0.548 | 0.534 | 0.599 | 0.586 | 0.529 | 0.537 | 0.461 | 0.526 | 0.471 | 0.19 | 0.163 | 0.186 | 0.198 | 0.161 |
| HOP-62 | 0.376 | 0.822 | 0.875 | 0.342 | 0.804 | 0.341 | 0.337 | 0.402 | 0.395 | 0.458 | 0.46 | 0.501 | 0.485 | 0.474 | 0.463 | 0.531 | 0.505 | 0.599 | 0.527 | 0.511 |
| IA-LM | 0.369 | 0.298 | 0.312 | 0.344 | 0.291 |  |  |  |  |  |  |  |  |  |  |  |  |  |  |  |
| NCI-H520 | 0.27 | 0.311 | 0.301 | 0.269 | 0.285 | 0.723 | 0.859 | 0.706 | 0.713 | 0.733 | 0.235 | 0.198 | 0.265 | 0.221 | 0.352 |  |  |  |  |  |
| NCI-H522 |  |  |  |  |  | 0.75 | 0.742 | 0.754 | 0.771 | 0.788 | 0.834 | 1.04 | 1.07 | 1.1 | 0.915 | 0.872 | 0.766 | 0.771 | 0.949 | 0.849 |
| NCI-H596 | 0.354 | 0.349 | 0.379 | 0.342 | 0.392 | 0.911 | 0.965 | 0.93 | 0.946 | 0.923 |  |  |  |  |  | 1.09 | 1.13 | 1.2 | 0.941 | 1.12 |
| NCI-H661 | 0.322 | 0.391 | 0.359 | 0.472 | 0.333 | 0.62 | 0.678 | 0.604 | 0.553 | 0.595 | 0.384 | 0.385 | 0.439 | 0.375 | 0.382 |  |  |  |  |  |
| NCI-H1299 | 0.797 | 0.827 | 0.919 | 0.452 | 0.762 |  |  |  |  |  |  |  |  |  |  |  |  |  |  |  |
| NCI-H1563 | 0.53 | 0.688 | 0.61 | 0.65 | 0.705 |  |  |  |  |  |  |  |  |  |  |  |  |  |  |  |
| NCI-H1648 |  |  |  |  |  | 0.636 | 0.455 | 0.477 | 0.481 | 0.408 | 0.255 | 0.236 | 0.276 | 0.297 | 0.291 | 0.579 | 0.613 | 0.709 | 0.572 | 0.638 |
| NCI-H1650 | 0.286 | 0.44 | 0.53 | 0.353 | 0.468 | 0.483 | 0.684 | 0.617 | 0.594 | 0.459 | 0.324 | 0.366 | 0.307 | 0.354 | 0.373 |  |  |  |  |  |
| NCI-H1703 | 0.25 | 0.24 | 0.261 | 0.214 | 0.251 |  |  |  |  |  |  |  |  |  |  | 0.109 | 0.121 | 0.145 | 0.16 | 0.134 |
| NCI-H2009 | 0.658 | 0.78 | 0.816 | 0.365 | 0.594 | 0.231 | 0.321 | 0.232 | 0.273 | 0.268 | 0.185 | 0.21 | 0.225 | 0.239 | 0.261 |  |  |  |  |  |
| NCI-H2023 | 0.171 | 0.193 | 0.151 | 0.142 | 0.168 | 0.564 | 0.675 | 0.572 | 0.762 | 0.657 | 0.416 | 0.398 | 0.388 | 0.437 | 0.425 |  |  |  |  |  |
| NCI-H2228 | 0.516 | 0.352 | 0.434 | 0.294 | 0.303 | 0.202 | 0.652 | 0.533 | 0.651 | 0.565 | 0.268 | 0.827 | 0.844 | 0.836 | 0.997 |  |  |  |  |  |
| NCI-H2342 |  |  |  |  |  | 0.897 | 0.904 | 0.895 | 0.988 | 0.88 | 0.605 | 0.614 | 0.562 | 0.575 | 0.529 | 0.415 | 0.516 | 0.472 | 0.52 | 0.493 |
| SK-LU-1 | 0.523 | 0.526 | 0.615 | 0.451 | 0.45 | 0.463 | 0.514 | 0.493 | 0.547 | 0.531 | 0.338 | 0.446 | 0.393 | 0.487 | 0.37 |  |  |  |  |  |
| SK-MES-1 | 0.392 | 0.32 | 0.33 | 0.293 | 0.237 | 0.625 | 0.587 | 0.561 | 0.587 | 0.61 | 0.314 | 0.33 | 0.325 | 0.316 | 0.317 |  |  |  |  |  |
| SW 900 |  |  |  |  |  | 0.56 | 0.947 | 0.927 | 0.953 | 0.933 | 0.58 | 0.594 | 0.518 | 0.538 | 0.591 | 0.559 | 0.65 | 0.689 | 0.552 | 0.538 |
| SW 1573 | 0.596 | 0.595 | 0.59 | 0.438 | 0.491 | 0.521 | 0.488 | 0.658 | 0.572 | 0.654 | 0.395 | 0.407 | 0.416 | 0.391 | 0.364 |  |  |  |  |  |
| UMC-11 | 0.775 | 0.802 | 0.888 | 0.604 | 1.03 | 0.558 | 0.876 | 0.712 | 0.779 | 0.744 | 0.354 | 0.343 | 0.323 | 0.349 | 0.324 |  |  |  |  |  |
